Marks after values point to notes of the source that are not given here.
Experiments:
ER = ER (Homo sapiens, UniProt P31947); test: MS (KD,app), ER; type: binding; conditions: 24 hr incubation
p65_45/14-3-3γ [1] = biological target: T1, p65_45/14-3-3γ (Homo sapiens, UniProt P61981); test: Fluorescence anisotropy compound titration, p65_45 peptide with 50 μM 14-3-3γ (CC50)
Description: Biochemical assessment of fragments 1-7 used a fluorescence anisotropy (FA) assay. […] The subsequent outputs are herein term termed ‘half maximal complex concentration (CC50)’. […] We sought to develop a structure-activity relationship (SAR) based upon these four chemotypes with the specific goal to develop high affinity molecular glues which orthosterically engage with p65 and stabilize the 14-3-3/p65 complex.
During compound titrations, the 14-3-3γ concentration was constant 50 μM and the compound was titrated in a 1:1 dilution series. In protein titrations, 14-3-3γ was titrated in a 1:1 dilution series in the presence of 1 mM compound. […] All measurements were performed once.

p65_45/14-3-3γ [2] = biological target: T1, p65_45/14-3-3γ; test: Fluorescence anisotropy protein titration, p65_45 peptide/14-3-3γ in presence of 1 mM fragment; type: binding; set-up: The full length 14-3-3γ was dialysis against 25 mM HEPES pH7.5; made in house; host or cells: E. coli BL21(DE3), pPROEX HTb
Description: SF: the fold-change of apparent KD in comparison to a DMSO control.
During compound titrations, the 14-3-3γ concentration was constant 50 μM and the compound was titrated in a 1:1 dilution series. In protein titrations, 14-3-3γ was titrated in a 1:1 dilution series in the presence of 1 mM compound. The plates (Corning 384 well plates, black, round bottom, low binding) were incubated for 3 h RT prior to fluorescence anisotropy (FA) measurements with the Tecan Infinite 500 plate reader (FITC dye: excitation 485 nm, emission 535 nm). Dilution series were prepared in FA buffer (10 mM HEPES pH 7.4, 150 mM NaCl, 0.1% Tween20). All measurements were performed once.

Pin1_72/14-3-3γ = biological target: T2, Pin1_72/14-3-3γ (Homo sapiens, UniProt P61981+Q13526); test: Fluorescence anisotropy protein titration, Pin1_72/14-3-3γ at constant compound; type: binding; conditions: based on internal DMSO control and 100 μM fragment
T2 construct: the full length 14-3-3γ was dialysis against 25 mM HEPES pH 7.5; made in house; host or cells: E. coli BL21(DE3), pPROEX HTb
Text: Inspired by the binding poses of 3 and 9 we combined their structural features to improve stabilization. […] In case of complex stabilization, a left shift of apparent KD values is expected, here described as stabilization factors (SF).
Fluorescence Anisotropy (FA) Assays.

[3] = Table 9, fold-change of apparent KD vs DMSO control
[4] = fold-change of apparent KD in comparison to a DMSO control, 1 mM fragment

T1 sequence (P61981 whole entry, other chains not shown, the tested form may be a part): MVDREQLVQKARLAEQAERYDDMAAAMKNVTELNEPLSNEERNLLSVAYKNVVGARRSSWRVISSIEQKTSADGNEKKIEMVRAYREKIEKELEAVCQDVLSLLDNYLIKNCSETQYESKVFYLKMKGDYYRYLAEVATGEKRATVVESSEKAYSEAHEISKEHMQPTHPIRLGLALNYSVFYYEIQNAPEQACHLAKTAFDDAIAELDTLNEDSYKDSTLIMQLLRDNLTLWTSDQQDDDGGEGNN
Chain of ER (P31947 whole entry, other chains not shown): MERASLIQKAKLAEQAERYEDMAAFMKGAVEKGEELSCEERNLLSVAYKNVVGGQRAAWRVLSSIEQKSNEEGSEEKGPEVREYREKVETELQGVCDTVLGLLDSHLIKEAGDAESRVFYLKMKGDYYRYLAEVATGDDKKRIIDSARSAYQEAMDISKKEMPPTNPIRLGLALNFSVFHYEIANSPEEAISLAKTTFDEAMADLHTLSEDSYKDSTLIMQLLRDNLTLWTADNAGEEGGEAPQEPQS
T2 sequence (P61981 whole entry, other chains not shown, the tested form may be a part): as the sequence (P61981 whole entry, other chains not shown, the tested form may be a part) above

In the case of `O=C(CCl)CCC1CCN(C(=O)C2(Nc3ccc(Cl)cc3)CCOCC2)CC1`, the Kd (ER) is reported as 0.145 µM.
`O=C(CCl)NCCCC1CCN(C(=O)C2(Nc3ccc(Cl)cc3)CCOCC2)CC1` was tested, and the Kd (ER) was < 0.1 µM.
In the case of `C=CS(=O)(=O)NCC1CCN(C(=O)C2(Nc3ccc(Cl)cc3)CCOCC2)CC1`, the Kd (ER) is reported as 0.125 µM.
In the case of `O=Cc1ccc(S(=O)(=O)N2CCC(CNC(=O)CCl)CC2)cc1`, the Kd (ER) is reported as 150 µM.
`O=C(CCl)NCC1CCN(S(=O)(=O)c2ccc(Cl)cc2)CC1` gave a Kd (ER) of 7.15 µM.
For `CC1CCc2ccccc2N1S(=O)(=O)c1ccc(C=O)cc1` (racemic) [24b, rac-4-[(2-methyl-1,2,3,4-tetrahydroquinolin-1-yl)sulfonyl]benzaldehyde], the EC50 (p65_45/14-3-3γ [1]) was 310 µM and the SF (p65_45/14-3-3γ [2]; [3]) was 36.
With `COC1CCCN(c2cc(C=O)ccc2[N+](=O)[O-])C1` (centres unmarked) [13e, 3-(3-methoxypiperidin-1-yl)-4-nitrobenzaldehyde] the “activity in FA compound titration” value (p65_45/14-3-3γ [1]) was “did not elicit significant ternary complex formation”.
In the case of `O=Cc1ccc([N+](=O)[O-])c(N2CCC(O)CC2)c1` [13f, 3-(4-hydroxypiperidin-1-yl)-4-nitrobenzaldehyde], the “activity in FA compound titration” value (p65_45/14-3-3γ [1]) is reported as “did not elicit significant ternary complex formation”.
`O=Cc1ccc([N+](=O)[O-])c(N2CCCC(O)C2)c1` (centres unmarked) [13l, 3-(3-hydroxypiperidin-1-yl)-4-nitrobenzaldehyde] was tested, and the “activity in FA compound titration” value (p65_45/14-3-3γ [1]) was “did not elicit significant ternary complex formation”.
With `O=Cc1ccc([N+](=O)[O-])c(N2CCOCC2)c1` [13q, 3-(morpholin-4-yl)-4-nitrobenzaldehyde] the “activity in FA compound titration” value (p65_45/14-3-3γ [1]) was “did not elicit significant ternary complex formation”.
In the case of `O=Cc1ccc(-n2ccnc2Br)nc1` [16d, 6-(2-bromo-1H-imidazol-1-yl)pyridine-3-carbaldehyde], the “activity in FA compound titration” value (p65_45/14-3-3γ [1]) is reported as “induced an increase in anisotropy”.
`O=Cc1ccc(-n2cncc2[C@H]2CCCN2CC2CC2)nc1` [16e, 6-{5-[(2R)-1-(cyclopropylmethyl)pyrrolidin-2-yl]-1H-imidazol-1-yl}pyridine-3-carbaldehyde] was tested, and the “activity in FA compound titration” value (p65_45/14-3-3γ [1]) was “induced an increase in anisotropy”.
In the case of `Cn1ccc(NS(=O)(=O)c2ccc(C=O)cc2)n1` [23b, 4-formyl-N-(1-methyl-1H-pyrazol-3-yl)benzene-1-sulfonamide], the SF (p65_45/14-3-3γ [2]; [4]) is reported as 1.5.
`CN(C)S(=O)(=O)c1ccc(C=O)cc1` [23c, 4-formyl-N,N-dimethylbenzene-1-sulfonamide] was tested, and the SF (p65_45/14-3-3γ [2]; [4]) was 1.8.
`COC1CN(S(=O)(=O)c2ccc(C=O)cc2)C1` [23d, 4-[(3-methoxyazetidin-1-yl)sulfonyl]benzaldehyde] showed an SF (p65_45/14-3-3γ [2]; [4]) of 5.1.
Work on `C[C@H]1CCCN1S(=O)(=O)c1ccc(C=O)cc1` [23e, 4-{[(2S)-2-methylpyrrolidin-1-yl]sulfonyl}benzaldehyde] yielded an SF (p65_45/14-3-3γ [2]; [4]) of 20.6.
`CN1CCCN(S(=O)(=O)c2ccc(C=O)cc2)CC1` [23g, 4-[(4-methyl-1,4-diazepan-1-yl)sulfonyl]benzaldehyde] showed an SF (p65_45/14-3-3γ [2]; [4]) of 4.0.
Compound `CN1CCN(S(=O)(=O)c2ccc(C=O)cc2)CC1` [23h, 4-[(4-methylpiperazin-1-yl)sulfonyl]benzaldehyde] has an SF (p65_45/14-3-3γ [2]; [4]) of 3.3.
`CCN1CCN(S(=O)(=O)c2ccc(C=O)cc2)CC1` [23i, 4-[(4-ethylpiperazin-1-yl)sulfonyl]benzaldehyde] gave an SF (p65_45/14-3-3γ [2]; [4]) of 3.3.
`CC(C)N1CCN(S(=O)(=O)c2ccc(C=O)cc2)CC1` [23j, 4-{[4-(propan-2-yl)piperazin-1-yl]sulfonyl}benzaldehyde] was tested, and the SF (p65_45/14-3-3γ [2]; [4]) was 5.5.
For `COCCN1CCN(S(=O)(=O)c2ccc(C=O)cc2)CC1` [23l, 4-{[4-(2-methoxyethyl)piperazin-1-yl]sulfonyl}benzaldehyde], the SF (p65_45/14-3-3γ [2]; [4]) was 4.5.
In the case of `O=Cc1ccc(S(=O)(=O)N2CCC(N3CCCC3)CC2)cc1` [23m, 4-{[4-(pyrrolidin-1-yl)piperidin-1-yl]sulfonyl}benzaldehyde], the SF (p65_45/14-3-3γ [2]; [4]) is reported as 3.5.
Work on `CN(C)C1CCN(S(=O)(=O)c2ccc(C=O)cc2)CC1` [23n, 4-{[4-(dimethylamino)piperidin-1-yl]sulfonyl}benzaldehyde] yielded an SF (p65_45/14-3-3γ [2]; [4]) of 3.5.
`CC(=O)N1CCN(S(=O)(=O)c2ccc(C=O)cc2)CC1` [23o, 4-[(4-acetylpiperazin-1-yl)sulfonyl]benzaldehyde] was tested, and the SF (p65_45/14-3-3γ [2]; [4]) was 4.5.
With `O=Cc1ccc(S(=O)(=O)N2CCNC(=O)C2)cc1` [23p, 4-[(3-oxopiperazin-1-yl)sulfonyl]benzaldehyde] the SF (p65_45/14-3-3γ [2]; [4]) was 2.2.
For `O=Cc1ccc(S(=O)(=O)N2CCCC(O)C2)cc1` (centres unmarked) [23q, 4-[(3-hydroxypiperidin-1-yl)sulfonyl]benzaldehyde], the SF (p65_45/14-3-3γ [2]; [4]) was 10.3.
In the case of `COC1CCCN(S(=O)(=O)c2ccc(C=O)cc2)C1` (centres unmarked) [23r, 4-[(3-methoxypiperidin-1-yl)sulfonyl]benzaldehyde], the SF (p65_45/14-3-3γ [2]; [4]) is reported as 7.5.
Compound `O=Cc1ccc(S(=O)(=O)N2CCC(O)CC2)cc1` [23s, 4-[(4-hydroxypiperidin-1-yl)sulfonyl]benzaldehyde] has an SF (p65_45/14-3-3γ [2]; [4]) of 7.2.
For `COC1CCN(S(=O)(=O)c2ccc(C=O)cc2)CC1` [23t, 4-[(4-methoxypiperidin-1-yl)sulfonyl]benzaldehyde], the SF (p65_45/14-3-3γ [2]; [4]) was 16.5.
With `O=Cc1ccc(S(=O)(=O)N2CCOCC2)cc1` [23u, 4-(morpholine-4-sulfonyl)benzaldehyde] the SF (p65_45/14-3-3γ [2]; [4]) was 6.3.
With `CN(C1CCCCC1)S(=O)(=O)c1ccc(C=O)cc1` [23w, N-cyclohexyl-4-formyl-N-methylbenzene-1-sulfonamide] the SF (p65_45/14-3-3γ [2]; [4]) was 12.7.
In the case of `CN(C1CCOCC1)S(=O)(=O)c1ccc(C=O)cc1` [23x, 4-formyl-N-methyl-N-(oxan-4-yl)benzene-1-sulfonamide], the SF (p65_45/14-3-3γ [2]; [4]) is reported as 5.9.
With `O=Cc1ccc(S(=O)(=O)N2CCc3ccccc3C2)cc1` [23y, 4-(1,2,3,4-tetrahydroisoquinoline-2-sulfonyl)benzaldehyde] the EC50 (p65_45/14-3-3γ [1]) was 180 µM, the SF (p65_45/14-3-3γ [2]; [3]) was 0.7^a and the SF (p65_45/14-3-3γ [2]; [4]) was 0.7.
Work on `O=Cc1ccc(S(=O)(=O)N2CCc3ccccc32)cc1` [24a, 4-(2,3-dihydro-1H-indole-1-sulfonyl)benzaldehyde] yielded an EC50 (p65_45/14-3-3γ [1]) of 220 µM and an SF (p65_45/14-3-3γ [2]; [3]) of 30.
`O=Cc1ccc(S(=O)(=O)N2CCCc3cc(F)ccc32)cc1` [24c, 4-[(6-fluoro-1,2,3,4-tetrahydroquinolin-1-yl)sulfonyl]benzaldehyde] gave an EC50 (p65_45/14-3-3γ [1]) of 140 µM and an SF (p65_45/14-3-3γ [2]; [3]) of 56.
`O=Cc1ccc(S(=O)(=O)N2CCCc3cc(Cl)ccc32)cc1` [24d, 4-[(6-chloro-1,2,3,4-tetrahydroquinolin-1-yl)sulfonyl]benzaldehyde] was tested, and the EC50 (p65_45/14-3-3γ [1]) was 160 µM and the SF (p65_45/14-3-3γ [2]; [3]) was 36.
Work on `COc1ccc2c(c1)CCCN2S(=O)(=O)c1ccc(C=O)cc1` [24e, 4-[(6-methoxy-1,2,3,4-tetrahydroquinolin-1-yl)sulfonyl]benzaldehyde] yielded an EC50 (p65_45/14-3-3γ [1]) of 120 µM and an SF (p65_45/14-3-3γ [2]; [3]) of 34.
Work on `O=Cc1ccc(S(=O)(=O)N2CCOc3ccccc32)cc1` [24f, 4-(3,4-dihydro-2H-1,4-benzoxazine-4-sulfonyl)benzaldehyde] yielded an EC50 (p65_45/14-3-3γ [1]) of 220 µM and an SF (p65_45/14-3-3γ [2]; [3]) of 23.
With `O=Cc1ccc(S(=O)(=O)N2CCOc3ccc(F)cc32)cc1` [24g, 4-[(6-fluoro-3,4-dihydro-2H-1,4-benzoxazin-4-yl)sulfonyl]benzaldehyde] the EC50 (p65_45/14-3-3γ [1]) was 310 µM and the SF (p65_45/14-3-3γ [2]; [3]) was 22.
With `O=Cc1ccc(S(=O)(=O)N2CCOc3cc(Cl)ccc32)cc1` [24h, 4-[(7-chloro-3,4-dihydro-2H-1,4-benzoxazin-4-yl)sulfonyl]benzaldehyde] the EC50 (p65_45/14-3-3γ [1]) was 250 µM and the SF (p65_45/14-3-3γ [2]; [3]) was 28.
Compound `COc1ccc2c(c1)OCCN2S(=O)(=O)c1ccc(C=O)cc1` [24i, 4-[(7-methoxy-3,4-dihydro-2H-1,4-benzoxazin-4-yl)sulfonyl]benzaldehyde] has an EC50 (p65_45/14-3-3γ [1]) of 110 µM.
With `O=Cc1ccc(-n2ccnc2-c2ccccc2)cc1C(F)(F)F` [compound 14, 4-(2-phenyl-1H-imidazol-1-yl)-2-(trifluoromethyl)benzaldehyde] the “SF (fold stabilization)” value (Pin1_72/14-3-3γ) was 1.2.
For `O=Cc1ccc(-n2ccnc2-c2ccccc2)cc1O` [compound 19, 2-hydroxy-4-(2-phenyl-1H-imidazol-1-yl)benzaldehyde], the “SF (fold stabilization)” value (Pin1_72/14-3-3γ) was 4.9.
